Experimental data reported in BigSolDB 2.1.

OC[C@@H](O)C(O)[C@@H](O)CO (some centres not stated)
Details | solubility (mole fraction)
in DMF, 293.21 K | 0.0411
in DMF, 298.29 K | 0.0504
in DMF, 303.26 K | 0.0609
in DMF, 308.24 K | 0.0736
in DMF, 313.22 K | 0.0895
in DMF, 318.32 K | 0.11
in DMF, 323.2 K | 0.134
in DMF, 328.24 K | 0.166
in DMF, 333.27 K | 0.204
in acetone, 293.29 K | 0.000203
in acetone, 298.18 K | 0.00024
in acetone, 303.26 K | 0.000304
in acetone, 308.22 K | 0.000401
in acetone, 313.2 K | 0.000543
in acetone, 318.23 K | 0.000743
in acetone, 323.2 K | 0.00101
in ethanol, 293.23 K | 0.00173
in ethanol, 298.28 K | 0.00242
in ethanol, 303.17 K | 0.00309
in ethanol, 308.21 K | 0.00397
in ethanol, 313.19 K | 0.00522
in ethanol, 318.29 K | 0.00709
in ethanol, 323.24 K | 0.00966
in ethanol, 328.19 K | 0.0132
in ethanol, 333.22 K | 0.0179
in isopropanol, 293.28 K | 0.00113
in isopropanol, 298.2 K | 0.00154
in isopropanol, 303.23 K | 0.00212
in isopropanol, 308.19 K | 0.00268
in isopropanol, 313.32 K | 0.00342
in isopropanol, 318.21 K | 0.00443
in isopropanol, 323.16 K | 0.00588
in isopropanol, 328.21 K | 0.00798
in isopropanol, 333.27 K | 0.0109
in isopropanol, 338.19 K | 0.0146
in isopropanol, 343.23 K | 0.0194
in n-butanol, 293.16 K | 0.00113
in n-butanol, 298.21 K | 0.00154
in n-butanol, 303.26 K | 0.00212
in n-butanol, 308.27 K | 0.00268
in n-butanol, 313.22 K | 0.00342
in n-butanol, 318.16 K | 0.00443
in n-butanol, 323.23 K | 0.00588
in n-butanol, 328.32 K | 0.00798
in n-butanol, 333.24 K | 0.0109
in n-butanol, 338.22 K | 0.0146
in n-butanol, 343.76 K | 0.0194
in n-pentanol, 293.2 K | 0.000298
in n-pentanol, 298.18 K | 0.000483
in n-pentanol, 303.26 K | 0.000734
in n-pentanol, 308.29 K | 0.00101
in n-pentanol, 313.19 K | 0.00136
in n-pentanol, 318.24 K | 0.00188
in n-pentanol, 323.29 K | 0.00263
in n-pentanol, 328.23 K | 0.00364
in n-pentanol, 333.22 K | 0.005
in n-pentanol, 338.33 K | 0.00682
in n-pentanol, 343.24 K | 0.00903
in toluene, 293.26 K | 3.99e-05
in toluene, 298.28 K | 4.18e-05
in toluene, 303.19 K | 4.52e-05
in toluene, 308.17 K | 5e-05
in toluene, 313.23 K | 5.63e-05
in toluene, 318.33 K | 6.42e-05
in toluene, 323.21 K | 7.31e-05
in toluene, 328.22 K | 8.37e-05
in toluene, 333.3 K | 9.6e-05
in toluene, 338.16 K | 0.000109
in toluene, 343.19 K | 0.000124
in water, 293.28 K | 0.162
in water, 298.3 K | 0.18
in water, 303.17 K | 0.203
in water, 308.21 K | 0.232
in water, 313.29 K | 0.266
in water, 318.26 K | 0.302
in water, 323.25 K | 0.339
in water, 328.21 K | 0.377
